Experiment: xn = mol fraction of the nth substance listed
Conditions: 101 kPa, Liquid; for mass density: Vibrating tube method; for speed of sound: fixed-path interferometer

CCCCO [butan-1-ol] + Cc1ccccc1
Conditions | mass density, 298.15 K [kg/m3] | mass density, 308.15 K [kg/m3] | mass density, 318.15 K [kg/m3] | mass density, 328.15 K [kg/m3] | speed of sound, 298.15 K [m/s] | speed of sound, 308.15 K [m/s] | speed of sound, 318.15 K [m/s] | speed of sound, 328.15 K [m/s]
x2 = 0 | 805.71 | 798.05 | 790.36 | 782.56 | 1240 | 1206.6 | 1173.4 | 1140.4
x2 = 0.02621 | 807.5 | 799.76 | 791.98 | 784.09 | 1241.1 | 1207.3 | 1173.8 | 1140.4
x2 = 0.06979 | 810.42 | 802.54 | 794.62 | 786.6 | 1242.9 | 1208.6 | 1174.5 | 1140.6
x2 = 0.1334 | 814.51 | 806.45 | 798.34 | 790.12 | 1245.4 | 1210.3 | 1175.4 | 1140.8
x2 = 0.1909 | 818.08 | 809.86 | 801.59 | 793.21 | 1247.6 | 1211.8 | 1176.3 | 1141
x2 = 0.2606 | 822.26 | 813.87 | 805.42 | 796.86 | 1250.1 | 1213.6 | 1177.4 | 1141.5
x2 = 0.3391 | 826.8 | 818.22 | 809.59 | 800.85 | 1252.9 | 1215.6 | 1178.6 | 1142
x2 = 0.4066 | 830.59 | 821.86 | 813.1 | 804.22 | 1255.4 | 1217.5 | 1180 | 1142.8
x2 = 0.473 | 834.2 | 825.36 | 816.47 | 807.48 | 1258 | 1219.6 | 1181.6 | 1144.1
x2 = 0.5406 | 837.84 | 828.87 | 819.88 | 810.78 | 1261 | 1222 | 1183.7 | 1145.7
x2 = 0.6007 | 841.01 | 831.96 | 822.88 | 813.7 | 1263.9 | 1224.6 | 1185.9 | 1147.6
x2 = 0.6711 | 844.68 | 835.54 | 826.37 | 817.12 | 1267.8 | 1228.2 | 1189.1 | 1150.5
x2 = 0.7376 | 848.14 | 838.93 | 829.68 | 820.37 | 1272.3 | 1232.3 | 1192.8 | 1154
x2 = 0.7967 | 851.2 | 841.92 | 832.63 | 823.27 | 1277 | 1236.8 | 1197.1 | 1158
x2 = 0.8691 | 854.94 | 845.61 | 836.27 | 826.88 | 1284.3 | 1243.8 | 1203.8 | 1164.4
x2 = 0.9327 | 858.35 | 848.98 | 839.62 | 830.24 | 1293.6 | 1252.7 | 1212.2 | 1171.9
x2 = 0.9649 | 860.1 | 850.75 | 841.43 | 832.09 | 1299.9 | 1258.4 | 1217 | 1175.9

CC(C)CC(C)(C)C [2,2,4-trimethylpentane] + CCCCO
Conditions | mass density, 298.15 K [kg/m3] | mass density, 308.15 K [kg/m3] | mass density, 318.15 K [kg/m3] | mass density, 328.15 K [kg/m3] | speed of sound, 298.15 K [m/s] | speed of sound, 308.15 K [m/s] | speed of sound, 318.15 K [m/s] | speed of sound, 328.15 K [m/s]
x1 = 0.03101 | 799.41 | 791.7 | 783.95 | 776.09 | 1229.7 | 1195.8 | 1162.1 | 1128.6
x1 = 0.07555 | 790.82 | 783.03 | 775.22 | 767.29 | 1216 | 1181.3 | 1146.9 | 1112.6
x1 = 0.1426 | 778.75 | 770.87 | 762.95 | 754.91 | 1196.8 | 1161.1 | 1125.6 | 1090.3
x1 = 0.2049 | 768.51 | 760.53 | 752.52 | 744.39 | 1180.8 | 1144.2 | 1107.8 | 1071.7
x1 = 0.2621 | 759.76 | 751.67 | 743.61 | 735.41 | 1167.3 | 1130 | 1092.5 | 1056.1
x1 = 0.3176 | 751.87 | 743.75 | 735.6 | 727.34 | 1155.5 | 1117.5 | 1079.8 | 1042.5
x1 = 0.3932 | 741.94 | 733.74 | 725.51 | 717.19 | 1141.1 | 1102.3 | 1063.9 | 1025.9
x1 = 0.4553 | 734.44 | 726.18 | 717.92 | 709.56 | 1130.7 | 1091.4 | 1052.6 | 1014.1
x1 = 0.5458 | 724.43 | 716.13 | 707.81 | 699.42 | 1117.4 | 1077.5 | 1038.1 | 999.2
x1 = 0.6067 | 718.27 | 709.93 | 701.6 | 693.2 | 1109.8 | 1069.5 | 1029.7 | 990.4
x1 = 0.6787 | 711.51 | 703.15 | 694.8 | 686.39 | 1101.9 | 1061.3 | 1021.1 | 981.6
x1 = 0.742 | 706.01 | 697.65 | 689.3 | 680.9 | 1095.9 | 1055.1 | 1014.7 | 974.8
x1 = 0.8095 | 700.58 | 692.21 | 683.87 | 675.5 | 1090.6 | 1049.5 | 1008.8 | 968.8
x1 = 0.8683 | 696.2 | 687.84 | 679.5 | 671.13 | 1086.7 | 1045.4 | 1004.6 | 964.3
x1 = 0.9078 | 693.42 | 685.07 | 676.75 | 668.4 | 1084.5 | 1043.1 | 1002.2 | 961.8
x1 = 0.9422 | 691.1 | 682.76 | 674.47 | 666.16 | 1082.9 | 1041.5 | 1000.6 | 960.2
x1 = 0.9619 | 689.83 | 681.51 | 673.25 | 664.98 | 1082.3 | 1040.7 | 1000 | 959.7
x1 = 0.981 | 688.66 | 680.37 | 672.16 | 663.97 | 1082.1 | 1040.9 | 1000.1 | 959.7
x1 = 1 | 687.68 | 679.45 | 671.3 | 663.17 | 1082.7 | 1041.1 | 1000.1 | 959.4

From the NIST ThermoML archive (doi:10.1016/j.jct.2013.05.009)
